From patent publication US12029748B2, “Synergistic composition for maintenance of healthy balance of microflora” (KIMBERLY-CLARK WORLDWIDE, INC., priority 2017, dated 2024)

tested on: L. crispatus and E. coli; test: Therapeutic Effect Protocol: L. crispatus / E. coli co-culture, ratio after 36 hours; format: cell-based, Lactobacillus crispatus; E. coli; details: nitrogen compound 0.10 wt/vol % with 1.0 wt/vol % α methyl-D glucoside (10:1); 36 hours anaerobic co-culture, 37° C.
Description: As used herein the term “therapeutic effect” refers to the ability of the compositions and formulations of the present invention to stimulate the growth of Lactobacillus relative E. coli measured according to the Therapeutic Effect Protocol described below. Generally, therapeutic effect is expressed as a ratio of Lactobacillus to E. coli and is desirably greater than about 2, more preferably greater than about 20 and more desirably greater than about 100.
The data in Table 1 was tested according to the Therapeutic Effect Protocol as described further herein. The nitrogen compounds were tested for their therapeutic efficacy at three different concentrations when combined with α methyl-D glucoside (1% wt/vol %). The concentrations of the nitrogen containing compounds that were tested were 1% wt/vol %, 0.5% wt/vol %, and 0.1% wt/vol %.
Colonies of L. crispatus and E. coli were prepared as follows. A colony of L. crispatus was transferred to 7 ml de Man, Rogosa & Sharpe (MRS) broth and incubated anaerobically (using BD GasPak EZ anaerobe container system with indicator) at 37° C. without shaking for 18-20 hours. A colony of E. coli was transferred to 5 ml Tryptic Soy Broth (TSB) and incubated aerobically (shaking at 100 rpm) at 37° C. for 18-20 hours.
Colonies were then inoculated as follows. Bacterial cultures were gently vortexed and 1 mL of each culture was transferred to a corresponding 2.0 mL micro-centrifuge tube and then centrifuged for two minutes at 14,500 rpm. The cultural supernatant was removed and the cell pellet was re-suspended in 1 mL of 0.95% (wt/vol %) saline. […] For L. crispatus, the pellet was re-suspended in 1 mL of 0.95% saline to achieve ˜10^7-10^8 cfu/mL. For E. coli, the pellet was re-suspended in 1 mL of 0.95% saline to achieve ˜10^8-10^9 cfu/mL.
Media were prepared as follows.
(§1) All of the ingredients in Table 2 were combined and the pH was adjusted to 6.5. […] To evaluate the effect of various nitrogen containing therapeutic agents on the growth of bacteria, the LAPT-g media, prepared as described above, was supplemented with various nitrogen containing compound therapeutic agents to a final test concentration between 0.1 and 1.0%. As initial screening measures, solubility and initial pH of each composition were checked. If a specific composition was insoluble (as detected by visual indication of precipitates or turbidity), then no further therapeutic efficacy testing was undertaken on that composition. Additionally, if the initial pH of the composition was below 5.5 (“Low”) or was above 6.5 (“High”), then no further therapeutic efficacy testing was undertaken on that composition.
Five milliliters (5 mL) of each medium was transferred to a test tube in duplicates for subsequent inoculation. A master mixture of L. crispatus and E. coli, prepared as described above, was prepared in 1,000:1 ratio. Each (5 ml) test tube was inoculated with the master mixture to give 10^5-10^6 total CFU L. crispatus and 100-1,000 total CFU E. coli per tube.
To establish a negative control, one tube was vortexed and 100 μL was removed to determine the initial cell concentrations by serial dilutions and plating (2 plates per dilution). L. crispatus is selected on MRS agar plates incubated anaerobically at 37° C. for two days. E. coli is selected on TSA plates incubated aerobically at 37° C. for one day. The co-cultures were incubated in an anaerobic container with BD GasPaks at 37° C. for 36 hours.
The effect of the α methyl-D glucoside and the nitrogen containing compound therapeutic agents on the ratio of L. crispatus to E. coli was measured 36 hours after inoculation and a final pH of the test solutions was recorded. The co-culture tube was vortexed and 100 μL was removed to determine the final cell concentrations by serial dilutions and plating (2 plates per dilution). L. crispatus is selected on MRS agar plates incubated anaerobically at 37° C. for two days.

Question: For `CC(=O)N[C@@H]1C(O)O[C@H](CO)[C@@H](O)[C@@H]1O` (stereo partly drawn) [N-Acetyl-D-Mannosamine], which “Therapeutic Efficacy Results (Lactobacillus/E. coli) 0.10%” value is on record?
Answer: 0.854

Question: Which “Therapeutic Efficacy Results (Lactobacillus/E. coli) 0.10%” value does the source give for `CNCCc1ccccc1.Cl` [Methyl(2-phenylethyl)amine Hydrochloride] here?
Answer: 10

Question: Which “Therapeutic Efficacy Results (Lactobacillus/E. coli) 0.10%” value does the source give for `C[C@@H](N)C(=O)O` [D-Alanine] here?
Answer: 1.10E+06

Question: For `NC(=O)C[C@@H](N)C(=O)O` [D-Asparagine], which “Therapeutic Efficacy Results (Lactobacillus/E. coli) 0.10%” value is on record?
Answer: >3410

Question: With `N[C@@H](Cc1ccc(O)cc1)C(=O)O` [L-Tyrosine] as the molecule, how does the “Therapeutic Efficacy Results (Lactobacillus/E. coli) 0.10%” value read?
Answer: 2.72

Question: Which “Therapeutic Efficacy Results (Lactobacillus/E. coli) 0.10%” value does the source give for `NCCCC[C@H](N)C(=O)O` [L-Lysine] here?
Answer: >141

same assay, conditions: nitrogen compound 0.50 wt/vol % with 1.0 wt/vol % α methyl-D glucoside (2:1); 36 hours anaerobic co-culture, 37° C.

Question: With `CC(=O)N[C@@H]1C(O)O[C@H](CO)[C@@H](O)[C@@H]1O` (stereo partly drawn) [N-Acetyl-D-Mannosamine] as the molecule, how does the “Therapeutic Efficacy Results (Lactobacillus/E. coli) 0.50%” value read?
Answer: 100

Question: For `CNCCc1ccccc1.Cl` [Methyl(2-phenylethyl)amine Hydrochloride], which “Therapeutic Efficacy Results (Lactobacillus/E. coli) 0.50%” value is on record?
Answer: <1.00

Question: For `C[C@@H](N)C(=O)O` [D-Alanine], which “Therapeutic Efficacy Results (Lactobacillus/E. coli) 0.50%” value is on record?
Answer: >1.30E+04

Question: For `NC(=O)C[C@@H](N)C(=O)O` [D-Asparagine], which “Therapeutic Efficacy Results (Lactobacillus/E. coli) 0.50%” value is on record?
Answer: 6.00E+06

Question: With `NCCCC[C@H](N)C(=O)O` [L-Lysine] as the molecule, how does the “Therapeutic Efficacy Results (Lactobacillus/E. coli) 0.50%” value read?
Answer: 1.93

same assay, conditions: nitrogen compound 1.00 wt/vol % with 1.0 wt/vol % α methyl-D glucoside (1:1); 36 hours anaerobic co-culture, 37° C.

Question: Which “Therapeutic Efficacy Results (Lactobacillus/E. coli) 1.00%” value does the source give for `CC(=O)N[C@@H]1C(O)O[C@H](CO)[C@@H](O)[C@@H]1O` (stereo partly drawn) [N-Acetyl-D-Mannosamine] here?
Answer: 0.02

Question: With `CNCCc1ccccc1.Cl` [Methyl(2-phenylethyl)amine Hydrochloride] as the molecule, how does the “Therapeutic Efficacy Results (Lactobacillus/E. coli) 1.00%” value read?
Answer: 3

Question: Which “Therapeutic Efficacy Results (Lactobacillus/E. coli) 1.00%” value does the source give for `C[C@@H](N)C(=O)O` [D-Alanine] here?
Answer: 60

Question: With `NC(=O)C[C@@H](N)C(=O)O` [D-Asparagine] as the molecule, how does the “Therapeutic Efficacy Results (Lactobacillus/E. coli) 1.00%” value read?
Answer: 72

Question: Which “Therapeutic Efficacy Results (Lactobacillus/E. coli) 1.00%” value does the source give for `NCCCC[C@H](N)C(=O)O` [L-Lysine] here?
Answer: 0.42

same assay, conditions: with α methyl-D glucoside; nitrogen compound 1 wt/vol %, 0.5 wt/vol % and 0.1 wt/vol %

Question: Which “Therapeutic effect (ratio of Lactobacillus to E. coli greater than 2) at each concentration tested” value does the source give for `C[C@@H](N)C(=O)O` [D-Alanine] here?
Answer: provided a therapeutic effect

Question: Which “Therapeutic effect (ratio of Lactobacillus to E. coli greater than 2) at each concentration tested” value does the source give for `NC(=O)C[C@@H](N)C(=O)O` [D-Asparagine] here?
Answer: provided a therapeutic effect

same assay, conditions: with α methyl-D glucoside; ratio 1:1

Question: Which “Therapeutic effect when ratio α methyl-D glucoside : nitrogen compound is less than 2:1 (1:1)” value does the source give for `CNCCc1ccccc1.Cl` [Methyl(2-phenylethyl)amine Hydrochloride] here?
Answer: provided a therapeutic effect

Question: For `C[C@@H](N)C(=O)O` [D-Alanine], which “Therapeutic effect when ratio α methyl-D glucoside : nitrogen compound is less than 2:1 (1:1)” value is on record?
Answer: provided a therapeutic effect

Question: Which “Therapeutic effect when ratio α methyl-D glucoside : nitrogen compound is less than 2:1 (1:1)” value does the source give for `NC(=O)C[C@@H](N)C(=O)O` [D-Asparagine] here?
Answer: provided a therapeutic effect

same assay, conditions: with α methyl-D glucoside; ratio at least about 2:1, not 1:1

Question: With `CC(=O)N[C@@H]1C(O)O[C@H](CO)[C@@H](O)[C@@H]1O` (stereo partly drawn) [N-Acetyl-D-Mannosamine] as the molecule, how does the “Therapeutic effect when ratio α methyl-D glucoside : nitrogen compound is at least about 2:1, but not at 1:1” value read?
Answer: provided a therapeutic effect

Question: With `CNCCc1ccccc1.Cl` [Methyl(2-phenylethyl)amine Hydrochloride] as the molecule, how does the “Therapeutic effect when ratio α methyl-D glucoside : nitrogen compound is at least about 2:1, but not at 1:1” value read?
Answer: provided a therapeutic effect

Question: Which “Therapeutic effect when ratio α methyl-D glucoside : nitrogen compound is at least about 2:1, but not at 1:1” value does the source give for `NCCCC[C@H](N)C(=O)O` [L-Lysine] here?
Answer: provided a therapeutic effect

tested on: not listed separately; test: Initial pH screening of the composition; format: physicochemical; details: nitrogen compound 0.10 wt/vol % with 1.0 wt/vol % α methyl-D glucoside in medium
Source text: Each composition in Table 1 went through initial screening measures of solubility and initial pH (“I pH”). […] When a specific concentration of a nitrogen containing compound was insoluble, the initial and final pH (“F pH”) of the combined composition was not measured and accordingly are each marked as “NM.” Additionally, initial pH of the composition was checked as a screening measure. The initial pH was marked as either Low (“L”), High (“H”), or Pass (“P”). A Low initial pH corresponds to an initial pH being less than 5.5, a High initial pH corresponds to an initial pH being greater than 6.5, and a Pass initial pH corresponds to the pH being at or between 5.5-6.5. […] As part of the Therapeutic Effect Protocol, a final pH was also measured after the compositions that were tested against the Lactobacillus and E. coli.
as §1

Question: With `CC(=O)N[C@@H]1C(O)O[C@H](CO)[C@@H](O)[C@@H]1O` (stereo partly drawn) [N-Acetyl-D-Mannosamine] as the molecule, how does the “I pH (initial pH), 0.10%” value read?
Answer: P (a Pass initial pH corresponds to the pH being at or between 5.5-6.5)

Question: Which “I pH (initial pH), 0.10%” value does the source give for `CNCCc1ccccc1.Cl` [Methyl(2-phenylethyl)amine Hydrochloride] here?
Answer: P (a Pass initial pH corresponds to the pH being at or between 5.5-6.5)

Question: With `C[C@@H](N)C(=O)O` [D-Alanine] as the molecule, how does the “I pH (initial pH), 0.10%” value read?
Answer: P (a Pass initial pH corresponds to the pH being at or between 5.5-6.5)

Question: With `NC(=O)C[C@@H](N)C(=O)O` [D-Asparagine] as the molecule, how does the “I pH (initial pH), 0.10%” value read?
Answer: P (a Pass initial pH corresponds to the pH being at or between 5.5-6.5)

Question: Which “I pH (initial pH), 0.10%” value does the source give for `N[C@@H](Cc1ccc(O)cc1)C(=O)O` [L-Tyrosine] here?
Answer: P (a Pass initial pH corresponds to the pH being at or between 5.5-6.5)

Question: Which “I pH (initial pH), 0.10%” value does the source give for `NCCCC[C@H](N)C(=O)O` [L-Lysine] here?
Answer: P (a Pass initial pH corresponds to the pH being at or between 5.5-6.5)

same assay, conditions: nitrogen compound 0.50 wt/vol % with 1.0 wt/vol % α methyl-D glucoside in medium

Question: Which “I pH (initial pH), 0.50%” value does the source give for `CC(=O)N[C@@H]1C(O)O[C@H](CO)[C@@H](O)[C@@H]1O` (stereo partly drawn) [N-Acetyl-D-Mannosamine] here?
Answer: P (a Pass initial pH corresponds to the pH being at or between 5.5-6.5)

Question: Which “I pH (initial pH), 0.50%” value does the source give for `CNCCc1ccccc1.Cl` [Methyl(2-phenylethyl)amine Hydrochloride] here?
Answer: P (a Pass initial pH corresponds to the pH being at or between 5.5-6.5)

Question: With `C[C@@H](N)C(=O)O` [D-Alanine] as the molecule, how does the “I pH (initial pH), 0.50%” value read?
Answer: P (a Pass initial pH corresponds to the pH being at or between 5.5-6.5)

Question: With `NC(=O)C[C@@H](N)C(=O)O` [D-Asparagine] as the molecule, how does the “I pH (initial pH), 0.50%” value read?
Answer: P (a Pass initial pH corresponds to the pH being at or between 5.5-6.5)

Question: With `NCCCC[C@H](N)C(=O)O` [L-Lysine] as the molecule, how does the “I pH (initial pH), 0.50%” value read?
Answer: P (a Pass initial pH corresponds to the pH being at or between 5.5-6.5)

same assay, conditions: nitrogen compound 1.00 wt/vol % with 1.0 wt/vol % α methyl-D glucoside in medium

Question: For `CC(=O)N[C@@H]1C(O)O[C@H](CO)[C@@H](O)[C@@H]1O` (stereo partly drawn) [N-Acetyl-D-Mannosamine], which “I pH (initial pH), 1.00%” value is on record?
Answer: P (a Pass initial pH corresponds to the pH being at or between 5.5-6.5)

Question: With `CNCCc1ccccc1.Cl` [Methyl(2-phenylethyl)amine Hydrochloride] as the molecule, how does the “I pH (initial pH), 1.00%” value read?
Answer: P (a Pass initial pH corresponds to the pH being at or between 5.5-6.5)

Question: For `C[C@@H](N)C(=O)O` [D-Alanine], which “I pH (initial pH), 1.00%” value is on record?
Answer: P (a Pass initial pH corresponds to the pH being at or between 5.5-6.5)

Question: For `NC(=O)C[C@@H](N)C(=O)O` [D-Asparagine], which “I pH (initial pH), 1.00%” value is on record?
Answer: P (a Pass initial pH corresponds to the pH being at or between 5.5-6.5)

Question: For `NCCCC[C@H](N)C(=O)O` [L-Lysine], which “I pH (initial pH), 1.00%” value is on record?
Answer: P (a Pass initial pH corresponds to the pH being at or between 5.5-6.5)
